Measurements reported in US20150291598A1 (NOVARTIS AG, priority 2012, published 2015).

These compounds were tested on P. falciparum (NF54 or 3D7 strain) (assay: Assay for P. falciparum proliferation in infected human blood cells (SYBR Green)). Settings: NF54 or 3D7 infected human erythrocytes, 72 hours; read-out: EC50 (nM), inhibitory efficacy in delaying P. falciparum proliferation in infected human blood cells.
Format: cell-based, Plasmodium falciparum
Experimental: Assay for P. falciparum Proliferation in Infected Human Blood Cells
Compounds of the invention can be assayed to measure their capacity to inhibit proliferation of P. falciparum parasitemia in infected red blood cells. This parasite proliferation assay measures the increase in parasite DNA content using a DNA intercalating dye, SYBR Green® (INVITROGEN®) which has a high affinity for double stranded DNA.
NF54 or 3D7 P. falciparum strain is grown in complete culturing media until parasitemia reaches 3% to 8% with O+ human erythrocytes. […] 20 μl of screening media is dispensed into 384 well assay plates. 50 nl of compounds of the invention (in DMSO), including antimalarial controls (mefloquine, pyrimethamine and artemisinin), are then transferred into the assay plates, as well as DMSO alone to serve as a negative control for inhibition. Then 30 μl of a suspension of a NF54 or 3D7 P. falciparum infected erythrocytes in screening media is dispensed into the assay plates such that the final hematocrit is 2.5% with a final parasitemia of 0.3%. The plates are placed in a 37° C. incubator for 72 hours in a low oxygen environment containing 93% N2, 4% CO2, and 3% O2 gas mixture. 10 μl of lysis buffer (saponin, triton-X, EDTA) containing a 10× solution of SYBR Green I® in RPMI media is dispensed into the plates. The plates are lidded and kept at room temperature overnight for the lysis of the infected red blood cells. The fluorescence intensity is measured (excitation […], emission 530 nm) using the Envision™ system (Perkin Elmer).
“4-{6-[N-methyl(4-cyanobenzene)amido]imidazo[1,2-a]pyrazin-3-yl}benzamide [Compound 495]” gave an EC50 of 405 nM.

Same assay, conditions: Plasmodium falciparum, 3D7|NF54, Erythrocyte, in Homo sapiens, 72 h, NF54 or 3D7 infected human erythrocytes, 72 hours; read-out: EC50 (nM), inhibitory efficacy in delaying P. falciparum proliferation in infected human blood cells
For CN(Cc1cn2c(-c3ccc(-n4cccn4)cc3)cnc2cn1)c1ccc(F)cc1 [Compound 10], the EC50 was 189 nM.

Same assay, conditions: Plasmodium falciparum, Erythrocyte, 72 h, NF54 or 3D7 infected human erythrocytes, 72 hours; read-out: EC50 (nM), inhibitory efficacy in delaying P. falciparum proliferation in infected human blood cells
In the case of CC(N)C(=O)Nc1ccc(-c2cnc3cnc(C(=O)N(C)c4ccc(C#N)cc4)cn23)cc1 (stereo in doubt) [Compound 271, 3-{4-[(2S)-2-aminopropanamido]phenyl}-N-(4-cyanophenyl)-N-methylimidazo[1,2-a]pyrazine-6-carboxamide], the EC50 is reported as 207 nM.
CN(C(=O)c1cn2c(-c3ccc(NC(=O)C(N)C4CC4)cc3)cnc2cn1)c1ccc(C#N)cc1 (stereo in doubt) [Compound 292, 3-{4-[(2S)-2-amino-2-cyclopropylacetamido]phenyl}-N-(4-cyanophenyl)-N-methylimidazo[1,2-a]pyrazine-6-carboxamide] gave an EC50 of 304 nM.
CN(C)CCCOc1ccc(-c2cnc3cnc(C(=O)N(C)c4ccc(C#N)cc4)cn23)cn1 [Compound 1, N-(4-cyanophenyl)-3-(6-(3-(dimethylamino)propoxy)pyridin-3-yl)-N-methylimidazo[1,2-a]pyrazine-6-carboxamide] showed an EC50 of 477 nM.
Compound CN(Cc1cn2c(-c3ccc(-c4ccn[nH]4)cc3)cnc2cn1)c1ccc(C#N)cc1 [Compound 2, 4-(((3-(4-(1H-pyrazol-5-yl)phenyl)imidazo[1,2-a]pyrazin-6-yl)methyl)(methyl)amino)benzonitrile] has an EC50 of 66 nM.
CN(Cc1cn2c(-c3ccc(-c4ccn[nH]4)cc3)cnc2cn1)c1ccc(F)cc1 [Compound 3, N-((3-(4-(1H-pyrazol-5-yl)phenyl)imidazo[1,2-a]pyrazin-6-yl)methyl)-4-fluoro-N-methylaniline] showed an EC50 of 58 nM.
Compound CN(Cc1cn2c(-c3ccc(Cl)cc3)cnc2cn1)c1ccc(C#N)cc1 [Compound 4, 4-(((3-(4-chlorophenyl)imidazo[1,2-a]pyrazin-6-yl)methyl)(methyl)amino)benzonitrile] has an EC50 of 185 nM.
CN(Cc1cn2c(-c3ccc(-c4ccn[nH]4)cc3)cnc2cn1)c1ccc(Cl)cc1 [Compound 5, N-((3-(4-(1H-pyrazol-5-yl)phenyl)imidazo[1,2-a]pyrazin-6-yl)methyl)-4-chloro-N-methylaniline] showed an EC50 of 238 nM.
In the case of CN(C(=O)c1cn2c(-c3ccc(C(F)(F)F)cc3)cnc2cn1)c1ncc(Cl)cc1F [Compound 6, N-(5-chloro-3-fluoropyridin-2-yl)-N-methyl-3-(4-(trifluoromethyl)phenyl)imidazo[1,2-a]pyrazine-6-carboxamide], the EC50 is reported as 619 nM.
CS(=O)(=O)c1ccc2c(c1)CCN2C(=O)c1cn2c(-c3ccc(C(F)(F)F)cc3)cnc2cn1 [Compound 7, 5-methanesulfonyl-1-({3-[4-(trifluoromethyl)phenyl]imidazo[1,2-a]pyrazin-6-yl}carbonyl)-2,3-dihydro-1H-indole] was tested, and the EC50 was greater than 10000 nM.
CN(Cc1cn2c(-c3ccc4c(cnn4C)c3)cnc2cn1)c1ccc(F)cc1 [Compound 8, 4-fluoro-N-methyl-N-((3-(1-methyl-1H-indazol-5-yl)imidazo[1,2-a]pyrazin-6-yl)methyl)aniline] showed an EC50 of 21 nM.
With CN(Cc1cn2c(-c3ccc(-n4cccn4)cc3)cnc2cn1)c1ccc(Cl)cc1 [Compound 9, N-((3-(4-(1H-pyrazol-1-yl)phenyl)imidazo[1,2-a]pyrazin-6-yl)methyl)-4-chloro-N-methylaniline] the EC50 was 218 nM.
Compound CN(C(=O)c1cn2c(-c3ccc(C(F)(F)F)cc3)cnc2cn1)c1ccc2c(c1)nnn2C [Compound 12, N-methyl-N-(1-methyl-1H-benzo[d][1,2,3]triazol-5-yl)-3-(4-(trifluoromethyl)phenyl)imidazo[1,2-a]pyrazine-6-carboxamide] has an EC50 of 4850 nM.
In the case of CN(C(=O)c1cn2c(-c3ccc(-c4ccn[nH]4)cc3)cnc2cn1)c1ccc(Cl)cc1 [Compound 13, N-(4-chlorophenyl)-N-methyl-3-[4-(1H-pyrazol-5-yl)phenyl]imidazo[1,2-a]pyrazine-6-carboxamide], the EC50 is reported as 41 nM.
For CN(C(=O)c1cn2c(-c3ccc(C(F)(F)F)cc3)cnc2cn1)c1nc2ccccc2s1 [Compound 14, N-(1,3-benzothiazol-2-yl)-N-methyl-3-[4-(trifluoromethyl)phenyl]imidazo[1,2-a]pyrazine-6-carboxamide], the EC50 was 9580 nM.
For CN(C(=O)c1cn2c(-c3ccc(-c4nnc(N)o4)cc3)cnc2cn1)c1ccc(Cl)cc1 [Compound 15, -[4-(5-amino-1,3,4-oxadiazol-2-yl)phenyl]-N-(4-chlorophenyl)-N-methylimidazo[1,2-a]pyrazine-6-carboxamide], the EC50 was 29 nM.
Compound COc1cccnc1N(C)C(=O)c1cn2c(-c3ccc(C(F)(F)F)cc3)cnc2cn1 [Compound 16, N-(3-methoxypyridin-2-yl)-N-methyl-3-[4-(trifluoromethyl)phenyl]imidazo[1,2-a]pyrazine-6-carboxamide] has an EC50 of 454 nM.
Work on CN(C(=O)c1cn2c(-c3ccc(Cl)cc3)cnc2cn1)c1ccc(S(C)(=O)=O)cc1 [Compound 17, 3-(4-chlorophenyl)-N-(4-methanesulfonylphenyl)-N-methylimidazo[1,2-a]pyrazine-6-carboxamide] yielded an EC50 of 602 nM.
CN(Cc1cn2c(-c3ccc(Cl)cc3)cnc2cn1)c1ccc(F)cc1 [Compound 18, N-{[3-(4-chlorophenyl)imidazo[1,2-a]pyrazin-6-yl]methyl}-4-fluoro-N-methylaniline] gave an EC50 of 78 nM.
In the case of Cc1ccc(-c2cnc3cnc(C(=O)N(C)c4ccc(C#N)cc4)cn23)nc1 [Compound 19, N-(4-cyanophenyl)-N-methyl-3-(5-methylpyridin-2-yl)imidazo[1,2-a]pyrazine-6-carboxamide], the EC50 is reported as 280 nM.
CN(C(=O)c1cn2c(-c3ccc(Cl)cc3Cl)cnc2cn1)c1ccc(C#N)cc1 [Compound 20, N-(4-cyanophenyl)-3-(2,4-dichlorophenyl)-N-methylimidazo[1,2-a]pyrazine-6-carboxamide] showed an EC50 greater than 10000 nM.
In the case of CN(Cc1cn2c(-c3ccc(OC(F)F)cc3)cnc2cn1)c1ccc(F)cc1 [Compound 21, N-({3-[4-(difluoromethoxy)phenyl]imidazo[1,2-a]pyrazin-6-yl}methyl)-4-fluoro-N-methylaniline], the EC50 is reported as 46 nM.
CN(C(=O)c1cn2c(-c3ccc(C(N)=O)cc3)cnc2cn1)c1ccc(F)c(F)c1 [Compound 22, 3-(4-carbamoylphenyl)-N-(3,4-difluorophenyl)-N-methylimidazo[1,2-a]pyrazine-6-carboxamide] showed an EC50 of 74 nM.
With CN(C(=O)c1cn2c(-c3ccc(C(F)(F)F)cc3)cnc2cn1)c1ccc(F)cc1F [Compound 23, N-(2,4-difluorophenyl)-N-methyl-3-[4-(trifluoromethyl)phenyl]imidazo[1,2-a]pyrazine-6-carboxamide] the EC50 was 99 nM.
For CN(C(=O)c1ccc(N2CCOCC2)cc1)c1cn2c(-c3ccc(C(F)(F)F)cc3)cnc2cn1 [Compound 24, N-methyl-4-(morpholin-4-yl)-N-{3-[4-(trifluoromethyl)phenyl]imidazo[1,2-a]pyrazin-6-yl}benzamide], the EC50 was 1120 nM.
CN(Cc1cn2c(-c3ccc(-c4nnc(N)s4)cc3)cnc2cn1)c1ccc(C#N)cc1 [Compound 25, 4-[({3-[4-(5-amino-1,3,4-thiadiazol-2-yl)phenyl]imidazo[1,2-a]pyrazin-6-yl}methyl)(methyl)amino]benzonitrile] was tested, and the EC50 was 6 nM.
With Cc1cc(Cl)ccc1-c1cnc2cnc(C(=O)N(C)c3ccc(C#N)cc3)cn12 [Compound 26, 3-(4-chloro-2-methylphenyl)-N-(4-cyanophenyl)-N-methylimidazo[1,2-a]pyrazine-6-carboxamide] the EC50 was 8330 nM.
In the case of CN(C(=O)c1cn2c(-c3ccnc(Cl)c3)cnc2cn1)c1ccc(C#N)cc1 [Compound 27, 3-(2-chloropyridin-4-yl)-N-(4-cyanophenyl)-N-methylimidazo[1,2-a]pyrazine-6-carboxamide], the EC50 is reported as greater than 10000 nM.
For CN(Cc1cn2c(-c3ccc(-c4nnc(N)s4)cc3)cnc2cn1)c1ccc(Cl)nc1 [Compound 28, -({3-[4-(5-amino-1,3,4-thiadiazol-2-yl)phenyl]imidazo[1,2-a]pyrazin-6-yl}methyl)-6-chloro-N-methylpyridin-3-amine], the EC50 was 13 nM.
With CN(C(=O)c1cn2c(-c3ncc(F)cc3F)cnc2cn1)c1ccc(C#N)cc1 [Compound 29, N-(4-cyanophenyl)-3-(3,5-difluoropyridin-2-yl)-N-methylimidazo[1,2-a]pyrazine-6-carboxamide] the EC50 was 2040 nM.
Compound COc1ccc(-c2cnc3cnc(C(=O)N(C)c4ccc(C#N)cc4)cn23)cc1C [Compound 30, N-(4-cyanophenyl)-3-(4-methoxy-3-methylphenyl)-N-methylimidazo[1,2-a]pyrazine-6-carboxamide] has an EC50 of 2510 nM.

Same assay, conditions: Plasmodium falciparum, Erythrocyte, infected human red blood cells; read-out: EC50, P. falciparum Proliferation Assay
In the case of CN(Cc1cn2c(-c3ccc(-c4nnc(N)s4)cc3)cnc2cn1)c1ccc(C#N)cc1 [Compound 25, 4-[({3-[4-(5-amino-1,3,4-thiadiazol-2-yl)phenyl]imidazo[1,2-a]pyrazin-6-yl}methyl)(methyl)amino]benzonitrile], the EC50 is reported as less than 50 nM.
